Some test systems named below: CMS; ML-2; MV4-11; MOLM-13; U937; CMK; CHRF288-11; M07e.
Design in all cases: species or system AML cell lines (8); Primary HTS, single concentration about 10 uM, Cell Titer Glo viability; log10 luminescence, per cent inhibition relative to cycloheximide control
Holding throughout (details): 72 h, relative to cycloheximide control, log10 luminescence, inhibitor

Where two headings read alike, the source gives them in different places.

Turning to `NC(=O)c1cc(-c2ccncc2)cc(-c2ccccc2)c1N` [SJ000573082-1, R11976/162/1], in the experiment on CMS, the CMS %inh came to 3.949%. The ML-2 %inh in the experiment on ML-2 is -0.3373%. Moreover, the MV4-11 %inh in the experiment with MV4-11 was 10.06%. In addition, the MOLM-13 %inh in the experiment on MOLM-13 is listed as 11%. For the same compound, the U937 %inh with U937 stood at 14.29%. Moreover, the CMK %inh in the experiment on CMK is reported as 2.399%. Besides, in the experiment on CHRF288-11, the CHRF288-11 %inh amounted to 4.55%. Also, the M07e %inh in the experiment with M07e is -1.265%.
Take `CC1=C(C(=O)Nc2ccc3[nH]ncc3c2)C(c2ccc(F)cc2)N=C(c2ccc(C(F)(F)F)nc2)N1` (stereo not shown) [SJ000573083-1, GW204431-043A1]: the CMS %inh in the experiment on CMS is on record as -1.221%. The ML-2 %inh in the experiment with ML-2 amounted to 3.386%. Besides, the MV4-11 %inh with MV4-11 stood at 0.5281%. Further, the MOLM-13 %inh in the experiment with MOLM-13 is recorded as 1.317%. Further, the U937 %inh in the experiment on U937 is -1.3%. Also, the CMK %inh in the experiment with CMK is reported as 6.755%. Besides, the CHRF288-11 %inh in the experiment with CHRF288-11 was 5.88%. Further, the M07e %inh in the experiment on M07e is 0.1515%.
Regarding `NS(=O)(=O)c1ccc(-c2cc3ccncc3cc2OCc2ccccc2)cc1` [SJ000573084-1, R12606/136/38], the CMS %inh with CMS is 4.611%. The ML-2 %inh in the experiment on ML-2 is recorded as 1.187%. The MV4-11 %inh in the experiment on MV4-11 is listed as -2.181%. The MOLM-13 %inh in the experiment with MOLM-13 stood at 2.161%. In the experiment with U937, the U937 %inh is on record as 0.3678%. The CMK %inh in the experiment with CMK is -0.9682%. Moreover, the CHRF288-11 %inh in the experiment on CHRF288-11 is listed as 3.946%. In addition, the M07e %inh with M07e came to 5.451%.
In the case of `CCCNc1cccc(-n2ncc3c(N/N=C/c4ccncc4)ncnc32)c1` [SJ000573085-1, U17680/65/1], in the experiment on CMS, the CMS %inh came out at 0.7041%. Moreover, in the experiment on ML-2, the ML-2 %inh is -0.9551%. The MV4-11 %inh with MV4-11 was -0.4908%. In addition, the MOLM-13 %inh in the experiment with MOLM-13 was -1.209%. Also, the U937 %inh with U937 is given as -0.2236%. In addition, the CMK %inh in the experiment on CMK is on record as 0.2304%. Further, the CHRF288-11 %inh in the experiment with CHRF288-11 turned out to be 2.576%. Further, the M07e %inh in the experiment on M07e came to 4.312%.
Take `CN1CCC(C(=O)Nc2n[nH]c3nc(-c4ccc(O)cc4)c(Br)cc23)CC1` [SJ000573086-1, RW100084-040A1 | AN100368-077A1]: the CMS %inh in the experiment with CMS (CMS %inh, 10 µM) was 85%. Besides, in the experiment on ML-2 (ML-2 %inh, 10 µM), the ML-2 %inh stood at 63.69%. For the same compound, the MV4-11 %inh in the experiment with MV4-11 (MV4-11 %inh, 10 µM) was determined as 81.01%. Besides, in the experiment with MOLM-13 (MOLM-13 %inh, 10 µM), the MOLM-13 %inh was found to be 112.8%. Also, the U937 %inh with U937 (U937 %inh, 10 µM) amounted to 86.11%. In addition, the CMK %inh in the experiment with CMK (CMK %inh, 10 µM) is listed as 70.81%. In addition, the CHRF288-11 %inh in the experiment on CHRF288-11 (CHRF288-11 %inh, 10 µM) is recorded as 69.8%. The M07e %inh with M07e (M07e %inh, 10 µM) is given as 88.26%.
As for `CN1CCC(C(=O)Nc2n[nH]c3nc(-c4ccc(O)cc4)c(Br)cc23)CC1` [SJ000573086-2, RW100084-040A1 | AN100368-077A1], the CMS %inh with CMS (CMS %inh, 10 µM) was found to be 94.2%. The ML-2 %inh in the experiment on ML-2 (ML-2 %inh, 10 µM) stood at 61.94%. For the same compound, in the experiment with MV4-11 (MV4-11 %inh, 10 µM), the MV4-11 %inh was found to be 86.37%. For the same compound, the MOLM-13 %inh with MOLM-13 (MOLM-13 %inh, 10 µM) is reported as 108.5%. Besides, in the experiment with U937 (U937 %inh, 10 µM), the U937 %inh is given as 85.17%. Further, the CMK %inh with CMK (CMK %inh, 10 µM) is recorded as 69.83%. Besides, the CHRF288-11 %inh with CHRF288-11 (CHRF288-11 %inh, 10 µM) came out at 68.5%. Moreover, in the experiment on M07e (M07e %inh, 10 µM), the M07e %inh came to 63.44%.
With `CCC(=O)Nc1ccc(C)c(-c2ccc(C(=O)NCC3CC3)cc2)c1` [SJ000573087-1, R7387/20/4], in the experiment on CMS, the CMS %inh was determined as 2.476%. The ML-2 %inh in the experiment with ML-2 is -0.3215%. In addition, the MV4-11 %inh in the experiment with MV4-11 is on record as 5.047%. Also, the MOLM-13 %inh in the experiment with MOLM-13 was found to be 6.641%. The U937 %inh in the experiment with U937 stood at 1.348%. The CMK %inh with CMK is on record as 1.803%. The CHRF288-11 %inh in the experiment on CHRF288-11 was 3.258%. Further, the M07e %inh in the experiment with M07e came to 5.006%.
As for `COc1ccc(-c2ccc3c(NC(=O)C4CC4)n[nH]c3n2)cc1` [SJ000573088-1, BS100048-058B1], the CMS %inh with CMS is -1.884%. The ML-2 %inh in the experiment on ML-2 is listed as 1.731%. In addition, the MV4-11 %inh with MV4-11 was -0.1427%. In addition, the MOLM-13 %inh in the experiment with MOLM-13 came to 4.236%. For the same compound, the U937 %inh in the experiment with U937 worked out at 1.777%. Also, the CMK %inh in the experiment on CMK came to 5.626%. In addition, the CHRF288-11 %inh in the experiment on CHRF288-11 is recorded as -3.869%. Also, the M07e %inh in the experiment with M07e was -1.122%.
Take `CN1CCN(Cc2ccc(-c3cc4ncnc(Nc5ccc(OCc6cccc(F)c6)c(Cl)c5)c4s3)o2)CC1` [SJ000573089-1, U17540/68/2]: the CMS %inh in the experiment on CMS came to 6.304%. Besides, the ML-2 %inh in the experiment with ML-2 is on record as -0.8811%. Also, the MV4-11 %inh with MV4-11 is listed as 5.617%. Also, the MOLM-13 %inh in the experiment on MOLM-13 is 4.975%. Further, the U937 %inh in the experiment on U937 was determined as 9.435%. For the same compound, the CMK %inh in the experiment with CMK came out at 14.44%. Moreover, in the experiment on CHRF288-11, the CHRF288-11 %inh came to 89.11%. The M07e %inh with M07e was -2.246%.
With `COc1cc2ncnc(Nc3ccc(C)c(O)c3)c2cc1OC` [SJ000573090-1, U13103/179/1], the CMS %inh in the experiment on CMS worked out at 0.3431%. The ML-2 %inh with ML-2 is -3.545%. For the same compound, the MV4-11 %inh with MV4-11 worked out at 0.6335%. Further, the MOLM-13 %inh in the experiment with MOLM-13 turned out to be 7.874%. Further, the U937 %inh with U937 amounted to 0.4968%. In the experiment with CMK, the CMK %inh is recorded as 1.416%. In addition, in the experiment on CHRF288-11, the CHRF288-11 %inh turned out to be 0.5463%. Also, the M07e %inh in the experiment with M07e is reported as -0.2224%.
Consider `Cc1cc(O)cc(C)c1/C=C/c1cncc(C(=O)OC(C)(C)C)c1` [SJ000573091-1, U11962/36/1], for which the CMS %inh in the experiment on CMS was -1.844%. Also, in the experiment with ML-2, the ML-2 %inh is recorded as -0.1273%. Besides, the MV4-11 %inh with MV4-11 is given as 1.728%. The MOLM-13 %inh in the experiment with MOLM-13 is given as 2.429%. Also, the U937 %inh in the experiment with U937 is listed as -1.9%. In addition, in the experiment on CMK, the CMK %inh was 2.193%. The CHRF288-11 %inh in the experiment with CHRF288-11 is -1.68%. Besides, the M07e %inh in the experiment on M07e is reported as -1.025%.
`c1cc(-c2cnn3nc(N4CCOCC4)ccc23)nc(NC2CC2)n1` [SJ000573092-1, U17157/98/7]: the CMS %inh in the experiment with CMS is listed as -2.802%. Moreover, the ML-2 %inh in the experiment with ML-2 worked out at 1.098%. The MV4-11 %inh in the experiment on MV4-11 is given as 16.51%. Besides, the MOLM-13 %inh with MOLM-13 is reported as 12.47%. Moreover, the U937 %inh in the experiment with U937 amounted to 4.896%. The CMK %inh in the experiment on CMK was -4.251%. For the same compound, the CHRF288-11 %inh in the experiment on CHRF288-11 is listed as -0.2849%. In addition, the M07e %inh with M07e stood at 1.021%.
With `CS(=O)(=O)CCNCc1ccc(-c2ccc3ncnc(Nc4ccc(OCc5ccccc5)cc4)c3c2)o1` [SJ000573093-1, R1325/200/3], the CMS %inh with CMS is recorded as 0.8735%. Besides, the ML-2 %inh in the experiment with ML-2 was determined as 1.913%. In addition, the MV4-11 %inh in the experiment with MV4-11 worked out at 19.4%. The MOLM-13 %inh in the experiment with MOLM-13 was 25.45%. In addition, the U937 %inh with U937 is -1.059%. Besides, in the experiment on CMK, the CMK %inh is 1.449%. In addition, the CHRF288-11 %inh with CHRF288-11 is on record as 1.417%. Moreover, the M07e %inh in the experiment on M07e is listed as 6.213%.
Take `COC(=O)Nc1nc2ccc(S(=O)(=O)c3ccc(NC(=O)Nc4cc(C(F)(F)F)ccc4F)cc3)cc2[nH]1` [SJ000573094-1, T229/157/1]: the CMS %inh with CMS is 3.097%. In the experiment with ML-2, the ML-2 %inh is -2.541%. Moreover, in the experiment with MV4-11, the MV4-11 %inh is -0.02364%. Further, in the experiment with MOLM-13, the MOLM-13 %inh stood at 1.464%. For the same compound, the U937 %inh in the experiment with U937 amounted to 1.083%. Also, the CMK %inh in the experiment with CMK came to 2.078%. Also, the CHRF288-11 %inh with CHRF288-11 is listed as 9.928%. The M07e %inh in the experiment with M07e is on record as 3.593%.
Turning to `CN(C)c1cc2c(Nc3ccc4nc(Cc5ccccc5)[nH]c4c3)ncnc2cn1` [SJ000573096-1, R142/81/1], the CMS %inh with CMS stood at 0.4943%. Further, in the experiment on ML-2, the ML-2 %inh is -0.4937%. Also, the MV4-11 %inh in the experiment with MV4-11 is 3.394%. Also, the MOLM-13 %inh in the experiment on MOLM-13 stood at 19.45%. In the experiment with U937, the U937 %inh was -0.02909%. For the same compound, in the experiment on CMK, the CMK %inh is recorded as 4.629%. Moreover, the CHRF288-11 %inh in the experiment with CHRF288-11 is -0.8109%. Besides, the M07e %inh in the experiment on M07e is -6.495%.
`Clc1ccc(-c2nn3ncccc3c2-c2ccnc(Nc3ccccc3)n2)cc1` [SJ000573097-1, U17838/189/2]: the CMS %inh with CMS is 3.744%. Also, in the experiment on ML-2, the ML-2 %inh is reported as -2.244%. Also, the MV4-11 %inh in the experiment on MV4-11 is 3.385%. Moreover, the MOLM-13 %inh in the experiment on MOLM-13 worked out at 0.7466%. Besides, the U937 %inh with U937 is recorded as -1.31%. In addition, in the experiment on CMK, the CMK %inh was found to be 3.667%. Besides, the CHRF288-11 %inh in the experiment on CHRF288-11 worked out at 6.42%. The M07e %inh in the experiment on M07e was -1.226%.
`Cc1ccc(NC(=O)CC2CC2)cc1-c1ccc(C(=O)NCC2CC2)cc1` [SJ000573098-1, R7387/20/3]: the CMS %inh in the experiment on CMS stood at 1.599%. In addition, the ML-2 %inh in the experiment with ML-2 is -2.089%. In the experiment on MV4-11, the MV4-11 %inh was found to be 0.255%. In addition, the MOLM-13 %inh with MOLM-13 amounted to 0.2753%. In addition, the U937 %inh in the experiment with U937 is 1.321%. For the same compound, the CMK %inh in the experiment on CMK stood at 4.183%. For the same compound, the CHRF288-11 %inh in the experiment with CHRF288-11 stood at 2.428%. Moreover, the M07e %inh in the experiment on M07e is listed as -0.8105%.
